According to paper PMC7321560 (2020):

Tests used:
[1] = tested on: split dopamine aptamer (aptamer1 + aptamer2) (DNA, aptamer) TTCGCAGGTGTGGAGTGACGTCG/CGACGCCAGTTTGAAGGTTCG; assay: square wave voltammetry, Langmuir fit (amperometric aptasensor); conditions: 10 mM Tris; 0.5 μM aptamer2; aptamer1 on gold; apparent (transducer-dependent)
[2] = tested on: split dopamine aptamer (aptamer1 + aptamer2) (DNA, aptamer) TTCGCAGGTGTGGAGTGACGTCG/CGACGCCAGTTTGAAGGTTCG; assay: organic electrochemical transistor gate potential shift, Langmuir fit; conditions: 10 mM Tris; 0.5 μM aptamer2; aptamer1 on gold gate; apparent (transducer-dependent)
[3] = tested on: split dopamine aptamer (aptamer1 + aptamer2) (DNA, aptamer) TTCGCAGGTGTGGAGTGACGTCG/CGACGCCAGTTTGAAGGTTCG; assay: organic electrochemical transistor gate potential shift; conditions: 10 mM Tris; 0.5 μM aptamer2; highest concentration 10 μM; shift under 15 mV or reversed
[4] = tested on: split dopamine aptamer (aptamer1 + aptamer2) (DNA, aptamer) TTCGCAGGTGTGGAGTGACGTCG/CGACGCCAGTTTGAAGGTTCG; assay: square wave voltammetry (amperometric aptasensor); conditions: 10 mM Tris; 0.5 μM aptamer2; highest concentration 50 μM

Row | Compound | KD [1] [nM] | KD [2] [nM] | binding [3] | binding [4]
1 | NCCc1ccc(O)c(O)c1 | 5000 | 0.007 | – | –
2 | NCCCC(=O)O | – | – | no | no
3 | N[C@@H](CCC(=O)O)C(=O)O | – | – | no | no
4 | O=C1O[C@H]([C@@H](O)CO)C(O)=C1O | – | – | no | no
5 | O=c1[nH]c(=O)c2[nH]c(=O)[nH]c2[nH]1 | – | – | no | no
